In patent US11690935B2, “Thermosensitive peptide hydrogel” (NATIONAL CHIAO TUNG UNIVERSITY, priority 2020, dated 2023):
One block for each molecule: values may come before it. Residues, ends and D or L forms follow the SMILES beside them. *: point of attachment. Phenylacetyl(2,3,4,5,6-F5) = O=C(Cc1c(F)c(F)c(F)c(F)c1F)*

How the values were obtained:
[1] = Gel formation / sol-gel transition by vial inverting method; type: physicochemical; conditions: for CGC: Table 5, critical gelation concentration; for Time at room temperature to convert again into a sol state: after gelation at 37° C., regardless of the concentration
Protocol: In a glass bottle of 2 mL (diameter 10 mm) with a screw cap, different compounds with different concentrations were weighed to perform the gelation. A sodium hydroxide solution was added to the suspension in order to adjust the pH value, and vortex and treatment of the sonication were alternately used until a clear compound solution was obtained. Polyethylene glycols having different molecular weights such as 300 g/mol, 600 g/mol, 1000 g/mol, 1500 g/mol, 2000 g/mol, and 3000 g/mol, etc. were also dissolved in the deionized water in order to obtain the polyethylene glycol solution, and the desired concentrations were further controlled. After the polyethylene glycols were completely dissolved, the polyethylene glycol solution was then mixed with the compound solution in order to obtain a compound/PEG solution. By adding hydrochloric acid dropwise, the pH value of the compound/PEG solution was adjusted to a neutral pH value of 7.0-7.4.
Gel formation was determined by a vial inverting method. After the equilibrium at room temperature, a glass bottle with the sample was immersed into a water bath of 37° C. in equilibrium or in an incubator of 37° C. for 30 minutes. After flipping the glass bottle, the sol-gel transition was determined. If the sample without floating was observed within 1 minute, the sample was considered as a gel. […] Each of the temperature data point represented an average temperature of three measurements. At a physiologically relevant temperature of 37° C., the gelation time as a function of the concentration of the block copolymer was measured in the water bath of 37° C.

[2] = Cell viability test (MTT assay); type: cell-based; conditions: human, hMSC (3A6) cells, read-out: Survival rate
Protocol: The biocompatibilities of different peptide molecules were measured by a cell viability test (MTT assay). hMSC (3A6) cells were seeded in a 24-well plate with a density of 50,000 cells in each well, and the hMSC (3A6) cells were cultured for 24 hours, wherein the 24-well plate comprises a culture medium (DMEM) of 0.5 mL, and the DMEM comprises 10% FBS and 1% penicillin. When seeded in the cells, each of the wells was added with the compounds of different concentrations (0.5 and 5 wt %). After 24 and 48 hours, the original culture medium was replaced by a fresh culture medium, wherein the fresh culture medium was supplemented with a MTT reagent of 0.5 mL (4 mg/mL). After another 4 hours, the culture medium containing the MTT reagent was removed, and DMSO (0.5 mL per well) was then added in order to dissolve formazan crystals. Each of the 24-well plate was transferred to a 96-well plate. The optical density of the cells was measured at 595 nm by a light absorption plate reader (Sunrise, DV990/BV4 GDV Programmable MPT reader). The cells without treated by the compounds were used as the control group. The cell viability percentage, that is, viability (%), of the cells was calculated according to the following Formula (2).
[formula] wherein ODsample represented the optical density of the sample, and ODcontrol represented the optical density of the control group.
In some embodiments of the invention, a cell viability test (MTT assay) was used for a colorimetric assay to analyze the biocompatibilities of the samples. In detail, a 0.5 wt % 5F-FF, a 0.5 wt %: 4.5 wt % 5F-FF/PEG1500, a 0.5 wt %: 4.5 wt % 5F-FF/PEG2000, and a 0.5 wt %: 4.5 wt % 5F-FF/PEG3000 (hydrogels under neutral conditions), and the immortalized human mesenchymal stem cells (hMSC, 3a6) was selected for testing, wherein the results were shown in FIG. 11. FIG. 11 was a diagram showing cell viability of cells treated with 0.5 wt % 5F-FF, 0.5 wt %: 4.5 wt % 5F-FF/PEG1500, 0.5 wt %: 4.5 wt % 5F-FF/PEG2000 and 0.5 wt %: 4.5 wt % 5F-FF/PEG3000 according to some embodiments of the invention.

[3] = Hydrogel degradation in PBS at 37° C.; type: physicochemical; conditions: on the seventh day, PBS pH 7.4, 37° C.
Protocol: Hydrogel degradation was performed in a phosphate buffered solution (PBS) at 37° C. with 5% of CO2. In a 4 mL glass bottle, various 0.3 mL hydrogels were prepared, and 3 mL PBS was added to each of the glass bottles having the hydrogel. At some specific data points, the PBS was removed. The hydrogel was freeze-dried by the freeze-drying method, and the hydrogel degradation rate was calculated according to the following Formula (1),
[formula] wherein W (%) represented the hydrogel degradation rate, Wi represented the initial weight of the hydrogel at day 0, and Wd represented the dry weight of the hydrogel at day of a specific number. Cell Viability Test
In some embodiments of the invention, accordingly, with the remaining conditions the same, the stability of the thermosensitive hydrogel was tested by immersing the samples into a PBS with the pH value of 7.4 at 37° C., and the result thereof was shown in FIG. 10. FIG. 10 was a diagram showing specific degradation percentage over time of the 5F-FF, 5F-FF/PEG300, 5F-FF/PEG600, 5F-FF/PEG1000, 5F-FF/PEG1500, 5F-FF/PEG2000, and 5F-FF/PEG3000 alone in the PBS according to some embodiments of the invention.

- Time at room temperature to convert again into a sol state [1]: 20 min
Structure (SMILES): N=C(N)NCCCC(NC(=O)C(Cc1ccccc1)NC(=O)C(Cc1ccccc1)NC(=O)Cc1c(F)c(F)c(F)c(F)c1F)C(=O)NCC(=O)NC(CC(=O)O)C(=O)O (stereo not drawn) [Sample 5F-FFRGD] ({Phenylacetyl(2,3,4,5,6-F5)}-FFRGD-OH; configuration not given here)

- Time at room temperature to convert again into a sol state [1]: 20 min
Structure (SMILES): CC(NC(=O)C(Cc1cnc[nH]1)NC(=O)CNC(=O)C(Cc1ccccc1)NC(=O)C(Cc1ccccc1)NC(=O)Cc1c(F)c(F)c(F)c(F)c1F)C(=O)NC(C(=O)NC(CC(=O)O)C(=O)O)C(C)C (stereo not drawn) [Sample 5F-FFGHAVD] ({Phenylacetyl(2,3,4,5,6-F5)}-FFGHAVD-OH; configuration not given here)

- Time Tsol-gel ([1]; 5F-FF with PEG of different molecular weights, thermosensitive gelation at 37° C., pH 7.0): Gel
- CGC (critical gelation concentration) ([1]; 5F-FF, Table 2): 0.5 wt %
- Degradation percentage [3]: 35.75%
Structure (SMILES): O=C(Cc1c(F)c(F)c(F)c(F)c1F)N[C@@H](Cc1ccccc1)C(=O)N[C@@H](Cc1ccccc1)C(=O)O [Sample 5F-FF, 2,3,4,5,6-fluorobenzyl-diphenylalanine]
- viability at 24 h, 0.5 wt % ([2]; day 1, hMSC (3A6), hydrogels under neutral conditions): 84%
- viability at 48 h, 0.5 wt % ([2]; day 2, hMSC (3A6)): 88.6%
- viability at 72 h, 0.5 wt % ([2]; day 3, hMSC (3A6)): 68.2%
- viability at 120 h, 0.5 wt % ([2]; day 5, hMSC (3A6)): 73.3%
- viability at 168 h, 0.5 wt % ([2]; day 7, hMSC (3A6)): 84%

The next lines start with the molecule.

Structure (SMILES): O=C(Cc1c(F)cc(F)cc1F)N[C@@H](Cc1ccccc1)C(=O)N[C@@H](Cc1ccccc1)C(=O)O [Sample 3F-FF]
- CGC ([1]; pH 7.0): 0.5 wt %

Structure (SMILES): O=C(Cc1ccc(F)cc1)N[C@@H](Cc1ccccc1)C(=O)N[C@@H](Cc1ccccc1)C(=O)O [Sample 1F-FF]
- CGC ([1]; pH 7.0): 1 wt %
- State at 37° C. ([1]; Table 6, 1F-FF with PEG of different molecular weights, pH 7.0): Gel
- Detailed description of the sample ([1]; Table 6, after cooling at 0° C.): Still hydrosol
- State at 0° C. (Surrounded by ice cubes) ([1]; Table 6, gel-sol behavior, pH 7.0): Gel
